Article PMC9064588 (RSC Advances, 2019)

Biological target: α-glucosidase (Maltase EC 3.2.1.20)
Assay: PNPG hydrolysis enzyme inhibition assay, absorbance at […] nm
Assay type: biochemical

IC50: 460 ± 10 nM
SMILES: Oc1cc(O)c2c(c1)O[C@@]1(c3ccc(O)c(O)c3)Oc3cc(O)c4c(c3[C@@H]2[C@H]1O)O[C@H](c1ccc(O)c(O)c1)[C@H](O)C4 [PCA2, Procyanidin A2]
